Data taken from ChEMBL document CHEMBL1201862, “PubChem BioAssay data set” (2004).
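Test compounds were applied to cells in 96-well plates for 48 hours at 5 doses. GI50 = concentration required for 50% inhibition of growth.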 Activity calls are given as the source filed them. No stated cut-off is given here; in the data, active = GI50 up to about 1.1 µM and inactive = higher.

Experiments:
Assay in all cases: NCI tumour cell line growth inhibition, 48 h
KM12 = test system: KM12
SF-268 = test system: SF-268
RPMI-8226 = test system: RPMI-8226
HT-29 = test system: HT-29
M14 = test system: M14
RXF 393 = test system: RXF 393
SF-539 = test system: SF-539
SK-MEL-28 = test system: SK-MEL-28
HOP-92 = test system: HOP-92
SK-MEL-2 = test system: SK-MEL-2
COLO 205 = test system: COLO 205
NCI-H23 = test system: NCI-H23
Malme-3M = test system: Malme-3M
A498 = test system: A498
UACC-62 = test system: UACC-62
HCC 2998 = test system: HCC 2998
LXFL 529 = test system: LXFL 529
DLD-1 = test system: DLD-1
OVCAR-5 = test system: OVCAR-5
ACHN = test system: ACHN
HCT-116 = test system: HCT-116
NCI-H522 = test system: NCI-H522
EKVX = test system: EKVX
A549 = test system: A549
HL-60 = test system: HL-60
NCI-H460 = test system: NCI-H460
MOLT-4 = test system: MOLT-4
SNB-75 = test system: SNB-75
DMS-114 = test system: DMS-114
OVCAR-3 = test system: OVCAR-3
SF-295 = test system: SF-295
OVCAR-8 = test system: OVCAR-8
OVCAR-4 = test system: OVCAR-4
HOP-18 = test system: HOP-18
SN12C = test system: SN12C
SK-OV-3 = test system: SK-OV-3
HOP-62 = test system: HOP-62
U-251 = test system: U-251
CAKI-1 = test system: CAKI-1
HCT-15 = test system: HCT-15
KM-20L2 = test system: KM-20L2
M19-MEL = test system: M19-MEL
K562 = test system: K562
NCI-H226 = test system: NCI-H226
SNB-78 = test system: SNB-78
UACC-257 = test system: UACC-257
DMS-273 = test system: DMS-273
SNB-19 = test system: SNB-19
CCRF-CEM = test system: CCRF-CEM
UO-31 = test system: UO-31
SK-MEL-5 = test system: SK-MEL-5
IGROV-1 = test system: IGROV-1
SR = test system: SR
786-0 = test system: 786-0
TK-10 = test system: TK-10
SW-620 = test system: SW-620
XF498 = test system: XF498
LOX IMVI = test system: LOX IMVI

SMILES: COCN/C(N)=N/C#N
- GI50 (KM12): > 100 µM (inactive)
- GI50 (SF-268): 85.9 µM (inactive)
- GI50 (RPMI-8226): > 100 µM (inactive)
- GI50 (HT-29): > 100 µM (inactive)
- GI50 (M14): > 100 µM (inactive)
- GI50 (RXF 393): > 100 µM (inactive)
- GI50 (SF-539): > 100 µM (inactive)
- GI50 (SK-MEL-28): > 100 µM (inactive)
- GI50 (HOP-92): > 100 µM (inactive)
- GI50 (SK-MEL-2): > 100 µM (inactive)
- GI50 (COLO 205): 21.7 µM (inactive)
- GI50 (NCI-H23): > 100 µM (inactive)
- GI50 (Malme-3M): > 100 µM (inactive)
- GI50 (A498): > 100 µM (inactive)
- GI50 (UACC-62): > 100 µM (inactive)
- GI50 (HCC 2998): > 100 µM (inactive)
- GI50 (LXFL 529): > 100 µM (inactive)
- GI50 (DLD-1): 42 µM (inactive)
- GI50 (OVCAR-5): > 100 µM (inactive)
- GI50 (ACHN): > 100 µM (inactive)
- GI50 (HCT-116): 75 µM (inactive)
- GI50 (NCI-H522): > 100 µM (inactive)
- GI50 (EKVX): > 100 µM (inactive)
- GI50 (A549): > 100 µM (inactive)
- GI50 (HL-60): > 100 µM (inactive)
- GI50 (NCI-H460): > 100 µM (inactive)
- GI50 (MOLT-4): > 100 µM (inactive)
- GI50 (SNB-75): > 100 µM (inactive)
- GI50 (DMS-114): 18.4 µM (inactive)
- GI50 (OVCAR-3): > 100 µM (inactive)
- GI50 (SF-295): > 100 µM (inactive)
- GI50 (OVCAR-8): > 100 µM (inactive)
- GI50 (OVCAR-4): > 100 µM (inactive)
- GI50 (HOP-18): > 100 µM (inactive)
- GI50 (SN12C): > 100 µM (inactive)
- GI50 (SK-OV-3): > 100 µM (inactive)
- GI50 (HOP-62): > 100 µM (inactive)
- GI50 (U-251): 27.4 µM (inactive)
- GI50 (CAKI-1): > 100 µM (inactive)
- GI50 (HCT-15): 15.7 µM
- GI50 (KM-20L2): > 100 µM (inactive)
- GI50 (M19-MEL): 41.7 µM (inactive)
- GI50 (K562): > 100 µM (inactive)
- GI50 (NCI-H226): > 100 µM (inactive)
- GI50 (SNB-78): > 100 µM (inactive)
- GI50 (UACC-257): > 100 µM (inactive)
- GI50 (DMS-273): 27.9 µM (inactive)
- GI50 (SNB-19): > 100 µM (inactive)
- GI50 (CCRF-CEM): > 100 µM (inactive)
- GI50 (UO-31): > 100 µM (inactive)
- GI50 (SK-MEL-5): > 100 µM (inactive)
- GI50 (IGROV-1): > 100 µM (inactive)
- GI50 (SR): 15.1 µM (inactive)
- GI50 (786-0): 80.4 µM (inactive)
- GI50 (TK-10): > 100 µM (inactive)
- GI50 (SW-620): 15.7 µM (inactive)

SMILES: Clc1ccc(/N=N/c2nc3ccccc3nc2/N=N/c2ccc(Cl)cc2Cl)c(Cl)c1
- GI50 (KM12): > 100 µM (inactive)
- GI50 (SF-268): > 100 µM (inactive)
- GI50 (RPMI-8226): > 100 µM (inactive)
- GI50 (HT-29): > 100 µM (inactive)
- GI50 (RXF 393): > 100 µM (inactive)
- GI50 (SF-539): > 100 µM (inactive)
- GI50 (SK-MEL-28): > 100 µM (inactive)
- GI50 (HOP-92): 44 µM (inactive)
- GI50 (SK-MEL-2): > 100 µM (inactive)
- GI50 (COLO 205): > 100 µM (inactive)
- GI50 (NCI-H23): > 100 µM (inactive)
- GI50 (Malme-3M): > 100 µM (inactive)
- GI50 (A498): > 100 µM (inactive)
- GI50 (HCC 2998): > 100 µM (inactive)
- GI50 (XF498): > 100 µM (inactive)
- GI50 (LXFL 529): 78.5 µM (inactive)
- GI50 (DLD-1): > 100 µM (inactive)
- GI50 (ACHN): 45.9 µM (inactive)
- GI50 (HCT-116): > 100 µM (inactive)
- GI50 (NCI-H522): 60.1 µM (inactive)
- GI50 (EKVX): > 100 µM (inactive)
- GI50 (A549): > 100 µM (inactive)
- GI50 (HL-60): 31.5 µM (inactive)
- GI50 (NCI-H460): > 100 µM (inactive)
- GI50 (MOLT-4): 29.4 µM (inactive)
- GI50 (SNB-75): 22.9 µM (inactive)
- GI50 (DMS-114): > 100 µM (inactive)
- GI50 (OVCAR-3): 70 µM (inactive)
- GI50 (SF-295): > 100 µM (inactive)
- GI50 (OVCAR-8): > 100 µM (inactive)
- GI50 (OVCAR-4): > 100 µM (inactive)
- GI50 (SN12C): > 100 µM (inactive)
- GI50 (HOP-62): > 100 µM (inactive)
- GI50 (U-251): > 100 µM (inactive)
- GI50 (HCT-15): > 100 µM
- GI50 (KM-20L2): > 100 µM (inactive)
- GI50 (M19-MEL): > 100 µM (inactive)
- GI50 (K562): 44.6 µM (inactive)
- GI50 (NCI-H226): > 100 µM (inactive)
- GI50 (SNB-78): > 100 µM (inactive)
- GI50 (UACC-257): > 100 µM (inactive)
- GI50 (LOX IMVI): > 100 µM (inactive)
- GI50 (SNB-19): 65.8 µM (inactive)
- GI50 (UO-31): > 100 µM (inactive)
- GI50 (IGROV-1): > 100 µM (inactive)
- GI50 (SR): 33.5 µM (inactive)
- GI50 (786-0): 85.5 µM (inactive)
- GI50 (TK-10): > 100 µM (inactive)
- GI50 (SW-620): > 100 µM (inactive)

SMILES: C=CCOC(C)n1c(C)c(Br)c(=O)[nH]c1=O (stereo unspecified)
- GI50 (KM12): > 100 µM (inactive)
- GI50 (SF-268): > 100 µM (inactive)
- GI50 (HT-29): > 100 µM (inactive)
- GI50 (RXF 393): > 100 µM (inactive)
- GI50 (SF-539): > 100 µM (inactive)
- GI50 (SK-MEL-28): > 100 µM (inactive)
- GI50 (HOP-92): > 100 µM (inactive)
- GI50 (SK-MEL-2): > 100 µM (inactive)
- GI50 (COLO 205): > 100 µM (inactive)
- GI50 (NCI-H23): > 100 µM (inactive)
- GI50 (Malme-3M): > 100 µM (inactive)
- GI50 (A498): > 100 µM (inactive)
- GI50 (UACC-62): > 100 µM (inactive)
- GI50 (HCC 2998): > 100 µM (inactive)
- GI50 (XF498): > 100 µM (inactive)
- GI50 (LXFL 529): > 100 µM (inactive)
- GI50 (DLD-1): > 100 µM (inactive)
- GI50 (OVCAR-5): > 100 µM (inactive)
- GI50 (ACHN): > 100 µM (inactive)
- GI50 (HCT-116): > 100 µM (inactive)
- GI50 (NCI-H522): > 100 µM (inactive)
- GI50 (EKVX): > 100 µM (inactive)
- GI50 (A549): > 100 µM (inactive)
- GI50 (HL-60): > 100 µM (inactive)
- GI50 (NCI-H460): > 100 µM (inactive)
- GI50 (MOLT-4): > 100 µM (inactive)
- GI50 (SNB-75): > 100 µM (inactive)
- GI50 (DMS-114): > 100 µM (inactive)
- GI50 (OVCAR-3): > 100 µM (inactive)
- GI50 (SF-295): > 100 µM (inactive)
- GI50 (OVCAR-8): > 100 µM (inactive)
- GI50 (SN12C): > 100 µM (inactive)
- GI50 (SK-OV-3): 65.2 µM (inactive)
- GI50 (U-251): > 100 µM (inactive)
- GI50 (CAKI-1): > 100 µM (inactive)
- GI50 (HCT-15): > 100 µM
- GI50 (KM-20L2): > 100 µM (inactive)
- GI50 (M19-MEL): > 100 µM (inactive)
- GI50 (NCI-H226): > 100 µM (inactive)
- GI50 (UACC-257): > 100 µM (inactive)
- GI50 (DMS-273): > 100 µM (inactive)
- GI50 (LOX IMVI): > 100 µM (inactive)
- GI50 (SNB-19): > 100 µM (inactive)
- GI50 (CCRF-CEM): > 100 µM (inactive)
- GI50 (UO-31): > 100 µM (inactive)
- GI50 (SK-MEL-5): > 100 µM (inactive)
- GI50 (IGROV-1): > 100 µM (inactive)
- GI50 (SR): > 100 µM (inactive)
- GI50 (786-0): > 100 µM (inactive)
- GI50 (TK-10): > 100 µM (inactive)
- GI50 (SW-620): > 100 µM (inactive)
